Measured values taken from article PMC9126943, “ADAMTS4-specific MR probe to assess aortic aneurysms in vivo using synthetic peptide libraries” (Nature Communications, 2022).
“And” between values parts separate entries of the source, which are not always exact repeats. Equal values may be shown once. Where a SMILES comes first, the peptide text is derived from it. Bridges are numbered along the chain shown (N, C = ends). The star is where a group is joined. DOTA = O=C(O)CN1CCN(CC(=O)O)CCN(CC(=O)*)CCN(CC(=O)O)CC1

Biological target: T1, ADAMTS4 in the aortic wall of ApoE−/− mice (Mus musculus, UniProt Q8BNJ2)
T1 construct: from tissue
T1 sequence (Q8BNJ2 209-833): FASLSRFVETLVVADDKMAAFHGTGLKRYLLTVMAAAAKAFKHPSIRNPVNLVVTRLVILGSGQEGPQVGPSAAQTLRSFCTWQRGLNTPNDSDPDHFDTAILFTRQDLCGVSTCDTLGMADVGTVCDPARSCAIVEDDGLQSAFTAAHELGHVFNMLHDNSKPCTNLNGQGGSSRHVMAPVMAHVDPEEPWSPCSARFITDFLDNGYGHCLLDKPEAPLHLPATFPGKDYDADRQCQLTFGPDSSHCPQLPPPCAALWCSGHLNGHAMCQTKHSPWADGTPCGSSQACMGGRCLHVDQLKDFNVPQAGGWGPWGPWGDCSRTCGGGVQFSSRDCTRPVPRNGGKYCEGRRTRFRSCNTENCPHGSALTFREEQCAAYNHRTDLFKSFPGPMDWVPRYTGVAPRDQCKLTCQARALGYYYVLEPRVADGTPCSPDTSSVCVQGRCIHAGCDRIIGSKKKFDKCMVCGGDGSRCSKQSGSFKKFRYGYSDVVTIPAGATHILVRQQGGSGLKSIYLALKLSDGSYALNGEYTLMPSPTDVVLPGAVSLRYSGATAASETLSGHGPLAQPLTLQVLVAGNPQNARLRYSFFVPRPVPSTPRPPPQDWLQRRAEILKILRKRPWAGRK
Assay: In vivo MRI with negative control probe and ADAMTS4-specific probe
Conditions: for CNR post administration, individual animals: d1 = negative control probe, d2 = ADAMTS4-specific probe, 0.13 mmol/kg
Protocol: In vivo MR imaging was performed in 6 ApoE^−/− mice (n = 6): three mice (n = 3) received AngII through the osmotic minipumps, three mice (n = 3) received saline, serving as the control group. MR imaging was performed 4 weeks after minipump implantation. On day 1, a native MR scan was followed by the intravenous injection of the negative control peptide (0.13 mmol/kg) and a subsequent MR scan. 24 h later, mice were imaged prior to and following the intravenous administration of the ADAMTS4-specific probe (0.13 mmol/kg).
Analysis of resulting MR images was performed using OsiriX (version 7.1, OsiriX Foundation, Bernex, Switzerland). All morphometric measurements were conducted on high-resolution MRI images. In order to assess the signal intensities, regions of interest (ROIs) were measured as areas of signal enhancement, which were co-localized with areas of aneurysmal-aortic tissue. For these areas, the CNR was calculated using the following formula: CNR = (Combined vessel-wall and aneurysmal-aortic-tissue-signal − blood-signal)/standard-deviation-signal (noise). The signal of noise was defined as the standard deviation in pixel intensity from an ROI placed in the background air anterior to the aorta.

N=C(N)NCCC[C@@H]1NC(=O)[C@H](CCCNC(=N)N)NC(=O)[C@H](CO)NC(=O)[C@@H](N)CSSC[C@@H](C(=O)N[C@@H](CO)C(=O)NCC(=O)NCC(=O)N[C@@H](CO)C(=O)NCC(=O)NCC(=O)N[C@@H](CCCCNC(=O)CN2CCN(CC(=O)O)CCN(CC(=O)O)CCN(CC(=O)O)CC2)C(=O)NCC(N)=O)NC(=O)CNC1=O (Gd complex, metal not drawn) [ADAMTS4-specific probe] (H-CSRRGCSGGSGGK(DOTA)G-NH2; disulfide 1-6)
increase in MR signal / CNR in the aortic wall, in words (0.13 mmol/kg i.v., 4 weeks after minipump implantation, n = 6): strong and significant increase | CNR post administration, individual animals (AAA (AngII) mice): 10.87 and 12.24 and 11.33 | CNR post administration, individual animals (control (c, saline) mice): 6.48 and 5.75 and 6.1
